Counter-ions that a name gives are not always drawn.
Key:
[1] = molecular target: T1, Na^+ /H^+ exchanger from rabbit erythrocytes (Oryctolagus cuniculus, UniProt P23791); experiment: Inhibition of the Na^+ /H^+ exchanger from rabbit erythrocytes (Na^+ influx by flame photometry); format: cell-based, rabbit (White New Zealand); settings: pH 7.4, 37° C., cholesterol-fed rabbits
T1 construct: determine the Na^+ influx into the erythrocytes via Na^+ /H^+ exchange by flame photometry; endogenous in cells; host or cells: intact erythrocytes (whole blood samples) of cholesterol-fed White New Zealand rabbits
T1 sequence (P23791 whole entry): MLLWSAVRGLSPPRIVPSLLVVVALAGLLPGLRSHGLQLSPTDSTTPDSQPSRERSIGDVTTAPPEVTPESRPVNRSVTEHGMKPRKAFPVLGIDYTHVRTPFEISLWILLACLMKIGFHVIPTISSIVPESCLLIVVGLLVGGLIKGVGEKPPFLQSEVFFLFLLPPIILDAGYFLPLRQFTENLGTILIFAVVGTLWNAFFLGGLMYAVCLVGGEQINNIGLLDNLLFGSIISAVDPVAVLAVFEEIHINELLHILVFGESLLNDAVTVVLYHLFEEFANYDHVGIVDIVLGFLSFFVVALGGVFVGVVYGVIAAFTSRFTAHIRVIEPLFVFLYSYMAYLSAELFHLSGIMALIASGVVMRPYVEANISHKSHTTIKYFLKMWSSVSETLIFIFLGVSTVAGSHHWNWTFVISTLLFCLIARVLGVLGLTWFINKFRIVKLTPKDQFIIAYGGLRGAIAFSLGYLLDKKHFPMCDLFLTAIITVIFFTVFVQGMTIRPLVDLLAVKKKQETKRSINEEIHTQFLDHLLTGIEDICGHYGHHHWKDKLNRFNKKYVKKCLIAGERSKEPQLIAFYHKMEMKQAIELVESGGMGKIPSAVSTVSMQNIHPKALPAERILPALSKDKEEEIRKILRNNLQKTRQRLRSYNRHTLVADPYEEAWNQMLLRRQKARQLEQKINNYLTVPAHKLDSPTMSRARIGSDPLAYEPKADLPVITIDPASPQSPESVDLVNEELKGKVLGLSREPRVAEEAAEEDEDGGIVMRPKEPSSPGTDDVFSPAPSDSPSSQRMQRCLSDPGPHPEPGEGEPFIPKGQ
Method: White New Zealand rabbits (Ivanovas) received a standard diet containing 2% cholesterol for six weeks in order to activate Na^+ /H^+ exchange and thus to be able to determine the Na^+ influx into the erythrocytes via Na^+ /H^+ exchange by flame photometry. The blood was taken from the auricular arteries and rendered uncoagulable by means of 25 IU of potassium heparin. A part of each sample was used for the duplicate determination of the hematocrit by centrifugation. Aliquots of 100 μl in each case were used to measure the Na^+ starting content of the erythrocytes.
In order to determine the amiloride-sensitive sodium influx, 100 μl of each blood sample were incubated at pH 7.4 and 37° C. in 5 ml in each case of a hyperosmolar salt-sucrose medium (mmol/l: 140 NaCl, 3 KCl, 150 sucrose, 0.1 ouabain, 20 trishydroxymethylaminomethane). The erythrocytes were then washed three times with ice-cold MgCl2 --ouabain solution (mmol/l: […] MgCl2, 0.1 ouabain) and hemolyzed in 2.0 ml of distilled water. The intracellular sodium content was determined by flame photometry.
The net Na^+ influx was calculated from the difference between sodium starting values and the sodium content of the erythrocytes after incubation. The amilorideinhibitable sodium influx ensued from the difference in the sodium content of the erythrocytes after incubation with and without amiloride 3×10^-4 mol/l. The sodium influx was also determined in this manner in the case of the compounds according to the invention.

cardiac arrhythmias = settings: in vivo; cited from earlier work

IC50 [1] | SMILES | side effects accompanying antiarrhythmic effect (cardiac arrhythmias)
400 nM | CC(O)c1ccc(Oc2ccc(C(=O)N=C(N)N)cc2S(C)(=O)=O)cc1 (racemic) [Example 2, hydrochloride] | –
300 to 500 nM | C[C@@H](O)[C@H](O)c1ccc(Oc2ccc(C(=O)N=C(N)N)cc2S(C)(=O)=O)cc1 [Example 3, 4-[4-(1(R),2(R) -Dihydroxyprop-1-yl)phenoxy]-3-methylsulfonylbenzoylguanidine] | –
100 to 500 nM | C[C@H](O)[C@@H](O)c1ccc(Oc2ccc(C(=O)N=C(N)N)cc2S(C)(=O)=O)cc1 [Example 4, 4-[4-(1(S),2(S)-Dihydroxyprop-1-yl)phenoxy]-3-methylsulfonylbenzoylguanidin] | –

The remaining lines, values behind:

SMILES | IC50 [1] | side effects accompanying antiarrhythmic effect (cardiac arrhythmias)
CC(=O)c1ccc(Oc2ccc(C(=O)N=C(N)N)cc2S(C)(=O)=O)cc1 [Example 1, 4-(4-Acetylphenoxy)-3-methylsulfonylbenzoylguanidine] | 400 nM | –
N=C(N)NC(=O)c1nc(Cl)c(N)nc1N [amiloride, Amiloride] | – | hypotensive and saluretic action
